According to publication PMC3792051, “Polyenylpyrrole Derivatives Inhibit NLRP3 Inflammasome Activation and Inflammatory Mediator Expression by Reducing Reactive Oxygen Species Production and Mitogen-Activated Protein Kinase Activation” (PLoS ONE, 2013):

Experiments:
Assay type in all cases: cell-based, murine
[1] = system: LPS-activated RAW 264.7 macrophages; experiment: iNOS and COX-2 expression by Western blot; details: 30 min pretreatment, LPS 24 h
Description: Cells were washed twice with ice-cold phosphate-buffered saline (PBS) and lysed on ice for 5 min with lysis buffer (20 mM Tris-HCl, pH 7.5, 150 mM NaCl, 1 mM Na 2EDTA, 1 mM EGTA, 1% Triton X-100, 2.5 mM sodium pyrophosphate, 1 mM beta-glycerophosphate, 1 mM Na 3VO4, 1 µg/ml of leupeptin, 1 mM PMSF, protease inhibitor cocktail). The lysate was then centrifuged at 12,000 x g at 4 °C for 10 min and the pellet discarded. Proteins in the supernatant were separated by SDS-PAGE and electrotransferred to a PVDF membrane (EMD Millipore Corporation), which was then blocked by incubation for 1 h at room temperature in blocking buffer [(5% nonfat milk in PBS containing 0.1% Tween 20 (PBST)], then incubated for 2 h at room temperature with the primary antibody diluted in blocking buffer. After three washes in PBST, the membrane was incubated for 1 h at room temperature with an appropriate HRP-conjugated secondary antibody diluted in blocking buffer and developed using an enhanced chemiluminescence Western blot detection system (EMD Millipore Corporation).
To investigate the inhibitory effect of compounds 1h, 1i, and 1n on the LPS-induced inflammatory response, NO levels in the supernatants of RAW 264.7 macrophages incubated with DMSO (vehicle) or compound 1h, 1i, or 1n for 30 min before, and during, incubation for 24 h with LPS (1 µg/ml) were measured by the Griess reaction. […] We next investigated their effect on the expression of iNOS, the NO producing enzyme, using Western blots.
Figure 2 Effect of polyenylpyrrole derivatives on the expression of inflammatory mediators in LPS-stimulated RAW 264.7 macrophages. In (A) and (C), the cells (5 × 10^5/ml; 1 ml) were incubated for 30 min with 2.5-40 µM compound 1h, 1i, or 1n or DMSO (vehicle), then LPS (1 µg/ml) was added and incubation continued for 24 h, then NO (A) or IL-6 or TNF-α (C) in the culture medium was assayed by the Griess reaction or ELISA, respectively. In (B), cells (5 × 10^5/ml; 1 ml) were pretreated for 30 min with 2.5-40 µM compound 1h or DMSO, then LPS (1 µg/ml) was added and incubation continued for 24 h, then expression of iNOS and COX-2 was measured by Western blotting. The fold increase is the intensity of the band of interest divided by that of the actin band normalized to the corresponding value for the 0 LPS/0 inhibitor control.

[2] = system: ATP-activated LPS-primed J774A.1 macrophages; experiment: Intracellular ROS production (DCF fluorescence), ATP-induced
Description: Intracellular ROS production was measured by detecting the fluorescence intensity of the 2’, 7’-dichlorofluorescein, the oxidation product of 2’, 7’-dichlorofluorescein diacetate (Molecular Probes, Eugene, OR). […] In another, J774A.1 macrophages (5 × 10^5/ml; 0.1 ml) were incubated with LPS (1 µg/ml) for 6 h, then vehicle, compound 1h (20 µM), or DPI (25 µM) was added for 30 min. 2’, 7’-dichlorofluorescein diacetate (2 µM) was then added for 30 min before incubation with ATP (5 mM) for the indicated time; while, in another, the order of addition of compound1h/DPI and LPS was reversed. The fluorescence intensity of 2’, 7’-dichlorofluorescein was detected at an excitation wavelength of 485 nm and an emission wavelength of 530 nm on a microplate absorbance reader (Bio-Rad Laboratories, Inc).
In (A), J774A.1 macrophages (1 × 10^6/ml; 1 ml) were incubated with LPS (1 µg/ml) for 6 h, then with compound 1h (20 µM), the NADPH oxidase inhibitor DPI (25 µM), or DMSO (vehicle) for 30 min in the continued presence of LPS, then 2’,7’-dichlorofluorescein diacetate (2 µM) was added for 30 min, followed by ATP (5 mM) for the indicated time, then ROS levels were determined by measuring the mean fluorescence intensity (MFI) of the fluorophore carboxyl-DCF and expressing this value relative to that at time zero. In (B), J774A.1 macrophages (1 × 10^6/ml; 1 ml) were incubated with compound 1h (20 µM), DPI (25 µM), or DMSO (vehicle) for 30 min, then LPS (1 µg/ml) was added for 6 h; the cells were then incubated with 2’,7’-dichlorofluorescein diacetate (2 µM) for 30 min, then with ATP (5 mM) for the indicated time and ROS levels were measured by detection of the fluorescence intensity of the fluorophore carboxyl-DCF and expressed relative to that at time zero.

[3] = system: RAW-Blue cells (RAW 264.7 with NF-κB reporter gene); experiment: NF-κB reporter assay (SEAP, QUANTI-Blue); details: 2.5-40 µM 30 min, LPS 1 µg/ml 24 h
Description: RAW-Blue™ cells, RAW 264.7 macrophages stably expressing the gene for secreted embryonic alkaline phosphatase (SEAP) inducible by NF-κB, were seeded in 60 mm dishes at a density of 5 × 10^5 cells/ml (1 ml) and grown overnight in a 5% CO2 incubator at 37 °C. They were then pretreated with vehicle or compound 1h for 30 min, then LPS (1 µg/ml) was added and incubation continued for 24 h. The medium was then harvested and 20 µl aliquots mixed with 200 µl of QUANTI-Blue™ medium (InvivoGen) in 96-well plates and incubated at 37 °C for 15 min, then SEAP activity was assessed by measuring the optical density at 655 nm using an ELISA reader.
Following LPS stimulation, IκB in the complex is phosphorylated by IκB kinase (IKK), ubiquitinated, and rapidly degraded in proteasomes, thus releasing NF-κB [30].
Figure 6 Effect of compound 1h on NF-κB activation in LPS-activated macrophages. (A) RAW 264.7 macrophages or (B) J774A.1 macrophages (both 5 × 10^5/ml; 1 ml) were incubated for 30 min with 10-40 µM compound 1h or DMSO, then LPS (1 µg/ml) was added and incubation continued for 20 min, then levels of phosphorylated and total IKK-α and IκB-α were measured by Western blotting. (C) RAW 264.7 macrophages or (D) J774A.1 macrophages (both 5 × 10^5/ml; 1 ml) were treated as in A and B, then nuclear translocation of NF-κB was analyzed by ELISA. […]

[4] = system: NLRP3 inflammasome in LPS + ATP-activated JAWSII cells; experiment: NLRP3 inflammasome-mediated IL-1β secretion

## O=c1cc(O)cc(/C=C/C=C/C=C/C=C/c2[nH]ccc2Cl)o1 [compound 1h]
[1]; 0-40 µM
  COX-2 expression: did not affect expression of COX-2
  LPS-induced iNOS expression: reduced LPS-induced iNOS expression
[1]; Western blot
  Concentration at which reduction of LPS-induced iNOS expression is significant: 5 to 40 µM
[2]; J774A.1, LPS 6 h, then compound 1h 20 µM or DPI 25 µM 30 min, ATP 5 mM 0-40 min
  ATP-induced ROS production, compound added after LPS priming: slightly reduced ATP-induced ROS production at 40 min
[2]; J774A.1, compound 1h 20 µM or DPI 25 µM 30 min, then LPS 6 h, then ATP 5 mM
  ATP-induced ROS production, compound added 30 min before LPS priming: significantly inhibited ATP-induced ROS production
[3]
  NF-κB transcriptional activity (SEAP reporter): reduced
[4]
  NLRP3 inflammasome-mediated IL-1β secretion: reduced NLRP3 inflammasome-mediated interleukin-1β (IL-1β) secretion
